Measurements published in patent US20250034089A1, “TETRAHYDROCARBAZOLE COMPOUND, AND PHARMACEUTICAL COMPOSITION AND USE THEREOF” (NAIN BIOTECH (HANGZHOU) CO., LTD., priority 2021, published 2025).

Test system: HeLa cells
Experiment: Clone formation of HeLa cells, single drugs and combination
Format: cell-based, human
Conditions: 700 nM KZT-A5, 100 nM SGI-1027, two weeks, compared with DMSO control, FIG. 7
Description: • 1) Cell source: HeLa cells were purchased from the Chinese Academy of Sciences Cell Bank (Shanghai). • 2) Cell culture and passage: The cell culture and passage method is the same as that described in “Inhibition of OCT4 protein in tumor stem cells (CSCs) by compounds”. • 3) Cell dosing treatment: The cells were inoculated into a 6-well plate containing the aforementioned culture medium at a density of 200 cells per well. They were divided into four groups, and DMSO (as blank control group), 700 nM KZT-A5 (as KZT-A5 single drug group), 100 nM SGI-1027 (as SGI-1027 single drug group), and 700 nM KZT-A5+100 nM SGI-1027 (as combination group) was added respectively. After two weeks, they were photographed, and the number of clones was counted in each group respectively.

SMILES	inhibition of clone formation
Cc1cc(Nc2ccc(NC(=O)c3ccc(Nc4ccnc5ccccc45)cc3)cc2)nc(N)n1 [SGI-1027, reference compound]	only slightly inhibits clone formation

Test system: HeLa (human cervical cancer cells)
Experiment: In vitro proliferation inhibition (CCK-8), HeLa
Format: cell-based
Conditions: Homo sapiens, 72 h, CCK-8, average of three wells in one test
Description: (§1) • 1) Cell sources: HeLa (human cervical cancer cells), CaSki (human cervical cancer intestinal metastasis cells), Huh7 (human liver cancer cells), HepG2 (human liver cancer cells), Hep3B (human liver cancer cells) were purchased from the Chinese Academy of Sciences cell bank (Shanghai); LO2 (human normal liver cells) and HcerEpic (human normal uterine epithelial cells) were from ATCC. • 2) Cell culture and passage: The cell culture and passage method is the same as that described in “The inhibitory effect of compounds on the OCT4 protein in tumor stem cells (CSC)”. • 3) Cell dosing treatment: The each type of cells mentioned above was digested, counted, and inoculated in each well of the 96 well cell culture plate (#3988, Corning) at a density of 5000 cells/200 μl culture medium. They were cultured in a cell culture incubator at 37° C. and 5% CO2 for 24 hours to allow the cells to fully adherent to the wall. Then, the original culture medium was replaced with complete culture medium containing gradient diluted KZT-A5 (each concentration with 3 repeated wells) as well as DMSO (#D5879, Sigma Aldrich) solvent control, and they are cultured for additional 72 hours. • 4) Pharmacodynamic test and statistics: First, the morphology of cells treated with the above compounds was observed, photographed and recorded using an inverted phase contrast microscope (X71, Olympus). Then the original culture medium was replaced with phenol red free culture medium containing CCK-8 detection reagent (#E606335, Shanghai Shenggong) respectively, and they are cultured in the incubator for additional 2 hours. Then the OD450 nm absorbance value (OD value) was measured on a multifunctional enzyme-linked immunosorbent assay (168-1130, Bio Rad). After the cells were treated with the test compound, the equations for calculating the cell survival rate or cell growth rate is: survival rate=GD value of the treated group/OD value of the control group×100%; the equations for calculating the growth inhibition rate of compounds on cell proliferation is: inhibition rate=(OD value of control group−OD value of the treated group)/OD value of control group×100%. Further, the IC50 of each compound was calculated in SPSS based on the inhibition rate.
(§2) • 1) Cell sources: Huh7 (human liver cancer cells), HepG2 (human liver cancer cells), Hep3B (human liver cancer cells), and HeLa (human cervical cancer cells) were all purchased from the Chinese Academy of Sciences cell bank (Shanghai), while LO2 (human normal liver cells) was obtained from ATCC. • 2) Cell culture and passage: The cell culture and passage method is the same as that described in “The inhibitory effect of compounds on human tumor cell lines from different tissue sources (1)”. • 3) Cell dosing treatment: The cell dosing treatment method is the same as that described in “The inhibitory effect of compounds on human tumor cell lines from different tissue sources (1). • 4) Pharmacodynamic test and statistics: The pharmacodynamic test and statistics method is the same as that described in “The inhibitory effect of compounds on human tumor cell lines from different tissue sources (1)”. The IC50 value data of the compound on each type of tumor cells is the average±standard deviation of three wells in one test.

SMILES	IC50 [µM]
COc1cc(CC2CCc3c([nH]c4ccc(C)cc34)C2=O)ccc1O (stereo not drawn) [Compound 8]	< 50
Cc1ccc2[nH]c3c(c2c1)CC/C(=C\c1c[nH]c2ncccc12)C3=O [Compound 14]	< 50
Cc1ccc2[nH]c3c(c2c1)CC/C(=C\c1ccnc2[nH]ccc12)C3=O [Compound 16]	< 50
COc1cc(/C=C2\CCc3c([nH]c4ccc(Br)cc34)C2=O)ccc1O [Compound 19]	< 50
COc1cc(/C=C2\CCc3c([nH]c4ccc(C#N)cc34)C2=O)ccc1O [Compound 20]	< 50
COC(=O)c1ccc2[nH]c3c(c2c1)CC/C(=C\c1ccc(O)c(OC)c1)C3=O [Compound 21]	< 50
COc1cc(/C=C2\CCc3c([nH]c4ccc(N5CCC(O)CC5)cc34)C2=O)ccc1O [Compound 22]	< 50
COc1cc(/C=C2\CCc3c([nH]c4ccc(N5CCNCC5)cc34)C2=O)ccc1O [Compound 23]	< 50
COc1cc(/C=C2\CCc3c([nH]c4ccc(-c5cn[nH]c5)cc34)C2=O)ccc1O [Compound 24]	< 50
C#Cc1ccc2[nH]c3c(c2c1)CC/C(=C\c1ccc(O)c(OC)c1)C3=O [Compound 25]	< 50
COc1cc(/C=C2\CCc3c([nH]c4ccc(F)cc34)C2=O)ccc1O [Compound 27]	< 50
COC(=O)c1ccc2[nH]c3c(c2n1)CC/C(=C\c1ccc(O)c(OC)c1)C3=O [Compound 28]	< 50
COc1cc(/C=C2\CCc3c([nH]c4cc(OC)c(OC)cc34)C2=O)ccc1O [Compound 31]	< 50
COc1cc(/C=C2\CCc3c([nH]c4c(Cl)cc(Cl)cc34)C2=O)ccc1O [Compound 32]	< 50
COc1ccc2[nH]c3c(c2n1)CC/C(=C\c1ccc(O)c(OC)c1)C3=O [Compound 33]	< 50

Same assay, conditions: Homo sapiens, 72 hours, CCK-8, average of three wells in one test

SMILES	IC50 [µM]
COc1ccc2[nH]c3c(c2c1)CC/C(=C\c1ccc(O)c(OC)c1)C3=O [Compound 18]	< 50
COc1cc(/C=C2\CC(C)(C)c3c([nH]c4ccc(C)cc34)C2=O)ccc1O [Compound 34]	< 50
COc1cc(/C=C2\Cc3c([nH]c4ccc(C)cc34)C2=O)ccc1O [Compound 35]	< 50
COc1cc(/C=C2\CSc3c([nH]c4ccc(C)cc34)C2=O)ccc1O [Compound 36]	< 50
COc1cc(/C=C2\CCCc3c([nH]c4ccc(C)cc34)C2=O)ccc1O [Compound 37]	< 50
COc1cc(/C=C2\CCc3c([nH]c4ccc(C)cc34)C2=O)cc(OC)c1OC [Compound 38]	< 50

Same assay, conditions: Homo sapiens, test (2), average±standard deviation of three wells

SMILES	IC50 [µM]
CCC(CO)/N=C1\CCCc2c1[nH]c1ccc(C)cc21 (stereo not drawn) [AH057, reference compound]	0.63 ± 0.03

Test system: HepG2 (human liver cancer cells)
Experiment: In vitro proliferation inhibition (CCK-8), HepG2
Format: cell-based
Conditions: Homo sapiens; HepG2, test (2), average±standard deviation of three wells
Description: (§3) • 1) Cell sources: HeLa (human cervical cancer cells), CaSki (human cervical cancer intestinal metastasis cells), Huh7 (human liver cancer cells), HepG2 (human liver cancer cells), Hep3B (human liver cancer cells) were purchased from the Chinese Academy of Sciences cell bank (Shanghai); LO2 (human normal liver cells) and HcerEpic (human normal uterine epithelial cells) were from ATCC. • 2) Cell culture and passage: The cell culture and passage method is the same as that described in “The inhibitory effect of compounds on the OCT4 protein in tumor stem cells (CSC)”. • 3) Cell dosing treatment: The each type of cells mentioned above was digested, counted, and inoculated in each well of the 96 well cell culture plate (#3988, Corning) at a density of 5000 cells/200 μl culture medium. They were cultured in a cell culture incubator at 37° C. and 5% CO2 for 24 hours to allow the cells to fully adherent to the wall. Then, the original culture medium was replaced with complete culture medium containing gradient diluted KZT-A5 (each concentration with 3 repeated wells) as well as DMSO (#D5879, Sigma Aldrich) solvent control, and they are cultured for additional 72 hours. • 4) Pharmacodynamic test and statistics: First, the morphology of cells treated with the above compounds was observed, photographed and recorded using an inverted phase contrast microscope (X71, Olympus). Then the original culture medium was replaced with phenol red free culture medium containing CCK-8 detection reagent (#E606335, Shanghai Shenggong) respectively, and they are cultured in the incubator for additional 2 hours. Then the OD450 nm absorbance value (OD value) was measured on a multifunctional enzyme-linked immunosorbent assay (168-1130, Bio Rad). After the cells were treated with the test compound, the equations for calculating the cell survival rate or cell growth rate is: survival rate=GD value of the treated group/OD value of the control group×100%; the equations for calculating the growth inhibition rate of compounds on cell proliferation is: inhibition rate=(OD value of control group−OD value of the treated group)/OD value of control group×100%. Further, the IC50 of each compound was calculated in SPSS based on the inhibition rate. […]

SMILES	IC50 [µM]
CCC(CO)/N=C1\CCCc2c1[nH]c1ccc(C)cc21 (stereo not drawn) [AH057, reference compound]	40.02 ± 0.08

Test system: Hep3B (human liver cancer cells)
Experiment: In vitro proliferation inhibition (CCK-8), Hep3B
Format: cell-based
Conditions: Homo sapiens, test (2), average±standard deviation of three wells
Description: as §3

SMILES	IC50 [µM]
CCC(CO)/N=C1\CCCc2c1[nH]c1ccc(C)cc21 (stereo not drawn) [AH057, reference compound]	18 ± 1.2

Test system: LO2 (human normal liver cells)
Experiment: In vitro proliferation inhibition (CCK-8), LO2
Format: cell-based
Conditions: LO2, test (2), average±standard deviation of three wells
Description: • 1) Cell sources: HeLa (human cervical cancer cells), CaSki (human cervical cancer intestinal metastasis cells), Huh7 (human liver cancer cells), HepG2 (human liver cancer cells), Hep3B (human liver cancer cells) were purchased from the Chinese Academy of Sciences cell bank (Shanghai); LO2 (human normal liver cells) and HcerEpic (human normal uterine epithelial cells) were from ATCC. • 2) Cell culture and passage: The cell culture and passage method is the same as that described in “The inhibitory effect of compounds on the OCT4 protein in tumor stem cells (CSC)”. • 3) Cell dosing treatment: The each type of cells mentioned above was digested, counted, and inoculated in each well of the 96 well cell culture plate (#3988, Corning) at a density of 5000 cells/200 μl culture medium. They were cultured in a cell culture incubator at 37° C. and 5% CO2 for 24 hours to allow the cells to fully adherent to the wall. Then, the original culture medium was replaced with complete culture medium containing gradient diluted KZT-A5 (each concentration with 3 repeated wells) as well as DMSO (#D5879, Sigma Aldrich) solvent control, and they are cultured for additional 72 hours. • 4) Pharmacodynamic test and statistics: First, the morphology of cells treated with the above compounds was observed, photographed and recorded using an inverted phase contrast microscope (X71, Olympus). Then the original culture medium was replaced with phenol red free culture medium containing CCK-8 detection reagent (#E606335, Shanghai Shenggong) respectively, and they are cultured in the incubator for additional 2 hours. Then the OD450 nm absorbance value (OD value) was measured on a multifunctional enzyme-linked immunosorbent assay (168-1130, Bio Rad). […] Further, the IC50 of each compound was calculated in SPSS based on the inhibition rate. […]

SMILES	IC50 [µM]
CCC(CO)/N=C1\CCCc2c1[nH]c1ccc(C)cc21 (stereo not drawn) [AH057, reference compound]	85.5 ± 2.92

Test system: Huh7 (human liver cancer cells)
Experiment: In vitro proliferation inhibition (CCK-8), Huh7
Format: cell-based
Conditions: Homo sapiens, Huh-7, Huh7, test (2), average±standard deviation of three wells
Description: as §1, §2

SMILES	IC50 [µM]
CCC(CO)/N=C1\CCCc2c1[nH]c1ccc(C)cc21 (stereo not drawn) [AH057, reference compound]	44.2 ± 1.61
